Assay results reported in PubChem BioAssay (NCI).
≈ marks a conversion by molar mass, not a printed value.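 Protocol summary: plate cells (96-well), add compound at 5 concentrations, incubate 48 h, interpolate endpoints linearly. GI50 is the concentration that inhibits growth by half. TGI: concentration producing complete growth inhibition.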

How the values were obtained:
Assay in all cases: inhibition of tumour cell growth, NCI panel, 48 h
[1] = system: SK-OV-3 ovarian
[2] = system: SF-268 CNS
[3] = system: M14 melanoma
[4] = system: OVCAR-5 ovarian
[5] = system: SW-620 colon
[6] = system: NCI-H226 lung
[7] = system: SN12C renal
[8] = system: COLO 205 colon
[9] = system: IGROV1 ovarian
[10] = system: UO-31 renal

SMILES	TGI [1]	TGI [2]	TGI [3]	TGI [4]	TGI [5]	TGI [6] [µM]	TGI [7]	TGI [8]	TGI [9]	TGI [10]	GI50 [1] [µg/mL]	GI50 [2] [µg/mL]	GI50 [3] [µg/mL]	GI50 [4] [µg/mL]	GI50 [5] [µg/mL]	GI50 [7] [µg/mL]	GI50 [8]	GI50 [9]	GI50 [10] [µg/mL]
OCCOCn1cc(Cn2ncc3c(SCc4ccccc4)ncnc32)nn1	> 100 µM	> 100 µM	> 100 µM	> 100 µM	> 100 µM	> 100	> 100 µM	> 100 µM	> 100 µM	> 100 µM	–	–	–	–	–	–	–	–	–
O=C(CCN1CC2CCC(CC2)C1)c1cccs1	> 53.4 µM	44.3 µM	31.8 µM	33.1 µM	12.2 µM	> 100	37.6 µM	34.7 µM	25.8 µM	23.9 µM	–	–	–	–	–	–	–	–	–
CC1(C)CC(=O)C2=C(C1)NC(SSC1=C(C#N)C(c3ccc(F)cc3)C3=C(CC(C)(C)CC3=O)N1)=C(C#N)C2c1ccc(F)cc1 (stereo unspecified)	15 µg/mL	58.4 µg/mL	49.5 µg/mL	> 150 µg/mL	25 µg/mL	–	52.1 µg/mL	55.8 µg/mL	15 µg/mL	74.9 µg/mL	15 (≈ 22.9 µM)	29.3 (≈ 44.8 µM)	22.6 (≈ 34.5 µM)	106 (≈ 162 µM)	6.93 (≈ 10.6 µM)	27.9 (≈ 42.6 µM)	29.1 µg/mL	15 µg/mL	32 (≈ 48.9 µM)
O=C(O)C(CSC(c1ccccc1)(c1ccccc1)c1ccccc1)N=Cc1cccs1 (stereo unspecified)	> 67.5 µM	> 40.2 µM	5.11 µM	> 100 µM	> 100 µM	> 96.7	98.1 µM	6.49 µM	> 100 µM	> 100 µM	–	–	–	–	–	–	–	–	–
NNC(=O)c1ccccc1Nc1ccccc1C(=O)NN	> 100 µM	> 100 µM	> 100 µM	> 100 µM	> 100 µM	> 100	> 100 µM	> 100 µM	> 100 µM	> 100 µM	–	–	–	–	–	–	–	–	–
NCCNc1nc(N2CCCC2)c2nc(Cl)c(NCc3ccccc3)nc2n1	3.79 µM	3.81 µM	3.16 µM	7.88 µM	4.73 µM	15.7	2.92 µM	3.29 µM	4.7 µM	3.32 µM	–	–	–	–	–	–	–	–	–
CCC(C)C1NC(=O)C2CCCN2C(=O)C(CC2CO2)OC(=O)CCNC(=O)C(C)N(C)C(=O)C(C(C)C)N(C)C1=O (stereo unspecified)	> 100 µM	> 100 µM	0.0179 µM	> 100 µM	> 100 µM	> 17.1	> 100 µM	47.3 µM	> 100 µM	15 µM	–	–	–	–	–	–	–	–	–
O=S(=O)(/N=C(\NO)Nc1ccc(Cl)cc1)c1ccc(S(=O)(=O)c2ccccc2)s1	–	90.7 µM	37.4 µM	63.7 µM	> 100 µM	52.1	39.9 µM	34.6 µM	39.8 µM	53.8 µM	–	–	–	–	–	–	–	–	–
CS(=O)(=O)c1nc(-c2cc3c(c(S(C)(=O)=O)n2)CCCC3)cc2c1CCCC2	> 64.7 µM	> 47.3 µM	> 100 µM	> 100 µM	> 100 µM	> 100	> 100 µM	> 100 µM	> 43.5 µM	0.111 µM	–	–	–	–	–	–	–	–	–
O=S(=O)(O)c1cccc2c(N=Nc3c(O)ccc4ccccc34)cccc12	> 100 µM	> 100 µM	> 100 µM	> 100 µM	> 100 µM	> 100	> 100 µM	> 100 µM	> 100 µM	> 100 µM	–	–	–	–	–	–	–	–	–
C/C(=N\NC(=O)c1cccnc1)c1cccc(/C(C)=N/NC(=O)c2cccnc2)n1	82.4 µM	30.6 µM	13.6 µM	8.28 µM	> 100 µM	–	> 100 µM	> 100 µM	27.7 µM	80.7 µM	–	–	–	–	–	–	4.15 µM	3.74 µM	–
CC(=O)N(C)c1ccc2c(ccc[n+]2[O-])c1[N+](=O)[O-]	–	> 100 µM	> 100 µM	> 100 µM	> 100 µM	> 100	> 100 µM	> 100 µM	> 100 µM	> 100 µM	–	–	–	–	–	–	–	–	–
Nc1ccccc1N/C(=C\C(=O)C(Cl)(Cl)Cl)c1ccccc1	> 100 µM	70.4 µM	42.2 µM	41.5 µM	> 100 µM	> 100	45.6 µM	98.1 µM	71 µM	39 µM	–	–	–	–	–	–	–	–	–
C[C@]12CC[C@@H]3c4ccccc4CC[C@H]3[C@@H]1CC[C@@H]2O	> 100 µM	> 100 µM	> 100 µM	–	> 100 µM	–	> 100 µM	> 100 µM	> 100 µM	> 100 µM	–	–	–	–	–	–	–	–	–
CC(Sc1ccccc1)C(CO)(CO)[N+](=O)[O-] (stereo unspecified)	39.9 µM	46.5 µM	32.9 µM	36.9 µM	28.4 µM	33	31.2 µM	–	38 µM	22.6 µM	–	–	–	–	–	–	–	–	–
C[C@]12CCC(=O)C=C1CC[C@@H]1[C@@H]2[C@@H](O)C[C@@]2(C)[C@H]1CC[C@]2(O)C(=O)CO	> 100 µM	> 100 µM	> 100 µM	> 100 µM	> 100 µM	> 100	> 100 µM	> 100 µM	> 100 µM	> 100 µM	–	–	–	–	–	–	–	–	–
Clc1ccc(Nc2nc(Cl)c3[nH]cnc3n2)cc1Cl	> 100 µM	91.3 µM	> 100 µM	> 100 µM	> 100 µM	> 100	> 100 µM	37.9 µM	> 100 µM	66.6 µM	–	–	–	–	–	–	–	–	–
COC(=O)C1C(C)N1C (stereo unspecified)	> 100 µM	–	> 100 µM	–	> 100 µM	> 100	> 100 µM	> 100 µM	> 100 µM	–	–	–	–	–	–	–	–	–	–
CN1C2CCC1C(C(O)c1ccccc1[N+](=O)[O-])C(=O)C2 (stereo unspecified)	> 100 µM	> 100 µM	> 100 µM	> 100 µM	> 100 µM	73.3	> 100 µM	> 100 µM	> 100 µM	> 100 µM	–	–	–	–	–	–	–	–	–
